Reference: patent US20030109486A1 (priority 2001, published 2003)
“Also recorded” adds a separate entry of the source. Where two headings read alike, the source gives them in different places.

Tests used:
[1] = Solubility in isotonic aqueous solutions of sodium chloride; details: salts
[2] = Animals; cited from earlier work
[3] = cited from earlier work
[4] = Stability of ATP solutions; format: physicochemical
Procedure: An example of a clinical procedure in the treatment of ALI and ARDS is as follows. After determination of baseline, pre-treatment hemodynamic variables, blood gases and pH values, an ATP dose escalation procedure is initiated. ATP is provided as a sterile solution in single use vials. […] Storage of the clinical solution is at controlled refrigerated temperature (2° C.-8° C. ). […] The concentration of the final sterile solution for the infusion is 8 mg/ml.
The product must be stored at controlled refrigerated temperature (2° C.-[…]). At pH 6.7-7.2, the sodium salt in aqueous solution is stable.

[5] = Cells/Organ; cited from earlier work
[6] = of seven children; infused directly into the pulmonary artery for 30 minutes to 30 hours; cited from earlier work
Airway mucosa [7] = details: Cells/Organ; cited from earlier work
[8] = low doses, intravenous; cited from earlier work
[9] = cited from earlier work; for whole blood ATP concentration, higher than the pretreatment values: 24 hr of infusion, average
SA + AV node = details: Cells/Organ; cited from earlier work
[10] = intravenous, cited from earlier work
Airway mucosa [11] = details: Patients, cited from earlier work; for Mucociliary clearance: epithelia of cystic fibrosis patients; for Chloride secretion: observed in epithelia of healthy participants and cystic fibrosis patients
[12] = Patients; cited from earlier work
[13] = Patients; cited from earlier work; remark: listed apart in the source
[14] = system: non-small cell lung cancer; details: cited from earlier work
[15] = Animals; cited from earlier work; remark: listed apart in the source
[16] = cited from earlier work; remark: listed apart in the source
[17] = Cells/Organ; cited from earlier work; remark: listed apart in the source
Tumor [18] = details: Cells/Organ; cited from earlier work
[19] = intramuscular; cited from earlier work
[20] = Patients; cited from earlier work; remark: listed apart in the source
[21] = system: tissue type plasminogen activator (tPA); details: infusions in humans; cited from earlier work
Tumor [22] = details: Patients; cited from earlier work
[23] = single arm study; cited from earlier work
Tumor [24] = details: Animals; cited from earlier work
[25] = infusions; rat kidney, rat lung, dog heart, rabbit lung, rat gut; cited from earlier work
[26] = intravenous; cited from earlier work
[27] = cited from earlier work; remark: listed apart in the source
[28] = in vivo; cited from earlier work
[29] = Patients; cited from earlier work; remark: listed apart in the source
[30] = Animals; cited from earlier work; remark: listed apart in the source
[31] = administration directly into the pulmonary artery or into the superior vena cava
[32] = healthy individuals, COPD patients, patients after surgical repair of congenital heart defects
[33] = ATP infusion rate 500-1000 μg/kg/min
[34] = ATP infusion rate ≦100 μg/kg/min
[35] = 50 or 65 microgram/kg/min for 96 hr, once every 4 weeks

Which “solubility in isotonic aqueous solutions of sodium chloride” value (shortened to “solubility in isotonic aqueous solutions”) [1] does the source give for Nc1ncnc2c1ncn2[C@@H]1O[C@H](COP(=O)(O)OP(=O)(O)O)[C@@H](O)[C@H]1O [ADP, adenosine 5′-diphosphate] here?
The value was “high solubility”.

With Nc1ncnc2c1ncn2[C@@H]1O[C@H](COP(=O)(O)O)[C@@H](O)[C@H]1O [AMP, adenosine 5′-monophosphate] as the molecule, how does the “solubility in isotonic aqueous solutions” value [1] read?
The value was “high solubility”.

With Nc1ncnc2c1ncn2[C@@H]1O[C@H](COP(=O)(O)OP(=O)(O)OP(=O)(O)O)[C@@H](O)[C@H]1O [ATP, adenosine 5′-triphosphate] as the molecule, how does the Pulmonary hypertension [2] read?
The Pulmonary hypertension was “Reduced”.

And the Pulmonary Arterial Pressure [3, 31]?
Its Pulmonary Arterial Pressure is “reducing”.

And the Pulmonary Vascular Resistance [3, 31]?
Its Pulmonary Vascular Resistance is “reducing”.

And the Systemic Arterial Pressure [3, 31]?
Its Systemic Arterial Pressure is “without any direct effect”.

And the Systemic Vascular Resistance [3, 31]?
Its Systemic Vascular Resistance is “without any direct effect”.

What about the Pulmonary Arterial Pressure [3, 32] of the same molecule?
The Pulmonary Arterial Pressure was “significantly decreasing”.

And the Pulmonary Vascular Resistance [3, 32]?
Its Pulmonary Vascular Resistance is “significantly decreasing”.

What about the “stability of the final ATP solutions at room temperature” value ([4]; final infusion solution 8 mg/ml in 0.5 normal saline, room temperature) of the same molecule?
The value was “at least 96 hours”.

What about the “stability of the sodium salt in aqueous solution” value ([4]; pH 6.7-7.2) of the same molecule?
The value was “stable”.

What about the “Shock: Organ function” value [5] of the same molecule?
The value was “Improved”.

What about the “children in whom hypertension crises were completely resolved and hemodynamic stability restored” value [6] of the same molecule?
The value was 4 children.

What about the Chloride secretion (Airway mucosa [7]) of the same molecule?
The Chloride secretion was “Increased”.

What about the Ciliary beat frequency (Airway mucosa [7]) of the same molecule?
Its Ciliary beat frequency is “Increased”.

What about the Mucus secretion (Airway mucosa [7]) of the same molecule?
The Mucus secretion was “Increased”.

And the Surfactant secretion (Airway mucosa [7])?
The Surfactant secretion was “Increased”.

What about the Water secretion (Airway mucosa [7]) of the same molecule?
Its Water secretion is “Increased”.

And the resolving pulmonary hypertension [8]?
Its resolving pulmonary hypertension is “effective”.

And the “whole blood ATP concentration, higher than the pretreatment values” (“whole blood ATP concentration” below) ([9]; 50 microgram/kg/min)?
The value was 63%.

And the “whole blood ATP concentration” value ([9]; 75 microgram/kg/min)?
The value was 67%.

What about the “whole blood ATP concentration” value ([9]; 100 microgram/kg/min) of the same molecule?
The value was 113%.

What about the “blood concentrations of ATP between 24 and 96 hr of the infusion” value ([9]; in vivo) of the same molecule?
The value was “relatively constant or slightly declined”.

And the “SA + AV node conduction” value (SA + AV node)?
The value was “Inhibited”.

And the “Cardiac Output” value [10, 33]?
The value was “Increase”.

What about the “Heart Rate” value [10, 33] of the same molecule?
The value was “Increase”.

What about the “Pulmonary Arterial Pressure” value [10, 33] of the same molecule?
The value was “Decrease”.

And the “Pulmonary Vascular Resistance” value [10, 33]?
Its value is “Decrease”.

What about the “Systemic Arterial Pressure” value [10, 33] of the same molecule?
The value was “Decrease”.

What about the “Systemic Vascular Resistance” value [10, 33] of the same molecule?
Its value is “Decrease”.

And the “Cardiac Output” value [10, 34]?
The value was “Small Increase”.

What about the “Heart Rate” value [10, 34] of the same molecule?
The value was “No Change”.

And the “Pulmonary Arterial Pressure” value [10, 34]?
Its value is “Decrease”.

What about the “Pulmonary Vascular Resistance” value [10, 34] of the same molecule?
Its value is “Decrease”.

What about the “Systemic Arterial Pressure” value [10, 34] of the same molecule?
Its value is “did not alter; also recorded: No Change”.

What about the “Systemic Vascular Resistance” value [10, 34] of the same molecule?
The value was “Small Decrease”.

And the Mucociliary clearance (Airway mucosa [11])?
The Mucociliary clearance was “Increased”.

And the Chloride secretion (Airway mucosa [11])?
The Chloride secretion was “Increased”.

What about the “SA + AV node conduction” value [12] of the same molecule?
The value was “Inhibited”.

And the Supraventricular tachycardias [12]?
Its Supraventricular tachycardias is “Inhibited”.

And the Pulmonary hypertension [13]?
The Pulmonary hypertension was “Reduced”.

And the “hematologic, renal, hepatic, or gastrointestinal toxicity” value [14, 35]?
Its value is “No significant”.

What about the “patients exhibiting stable disease after treatment” value [14, 35] of the same molecule?
Its value is “majority of patients”.

And the tumor shrinking [14, 35]?
The tumor shrinking was “no significant”.

What about the overall survival ([14]; as compared with historical data) of the same molecule?
The overall survival was “beneficial effects”.

What about the patient performance status ([14]; in vivo) of the same molecule?
The patient performance status was “beneficial effects”.

What about the weight gain ([14]; in vivo) of the same molecule?
The weight gain was “beneficial effects”.

What about the “Shock: Organ function” value [15] of the same molecule?
Its value is “Improved”.

And the “Shock: Survival rate” value [15]?
Its value is “Increased”.

What about the maximum tolerated dose ([16]; 96-hr infusions, advanced non-small cell lung cancer) of the same molecule?
The maximum tolerated dose was 50 microgram/kg/min.

And the “highest dose easily tolerated” value ([16]; patients suffering from other cancers)?
The value was 100 microgram/kg/min.

What about the Glycogenolysis [17] of the same molecule?
Its Glycogenolysis is “Increased”.

And the Chemotherapy efficacy (Tumor [18])?
Its Chemotherapy efficacy is “Increased”.

What about the Radiotherapy damage (Tumor [18]) of the same molecule?
The Radiotherapy damage was “Reduced”.

What about the Radiotherapy efficacy (Tumor [18]) of the same molecule?
Its Radiotherapy efficacy is “Increased”.

And the Tumor growth (Tumor [18])?
Its Tumor growth is “Inhibited”.

What about the “protecting the intestinal mucosal structure and function” value [19] of the same molecule?
The value was “effective”.

And the “Shock: Survival rate” value [20]?
The value was “Increased”.

What about the “release of tissue-type plasminogen activator (tPA)” value [21] of the same molecule?
The value was “profound acute release; also recorded: marked release”.

What about the “Cancer treatment: Weight loss” value (Tumor [22]) of the same molecule?
Its value is “Inhibited”.

And the Tumor growth (Tumor [22])?
Its Tumor growth is “Inhibited”.

And the several metabolic functions [23]?
The several metabolic functions was “beneficial”.

And the “Cancer treatment: Weight loss” value (Tumor [24])?
Its value is “Inhibited”.

And the Chemotherapy efficacy (Tumor [24])?
Its Chemotherapy efficacy is “Increased”.

And the Radiotherapy damage (Tumor [24])?
The Radiotherapy damage was “Reduced”.

What about the Radiotherapy efficacy (Tumor [24]) of the same molecule?
Its Radiotherapy efficacy is “Increased”.

And the Radiotherapy survival rate (Tumor [24])?
Its Radiotherapy survival rate is “Increased”.

And the Tumor growth (Tumor [24])?
The Tumor growth was “Inhibited”.

What about the “tissue injury during reperfusion after a preceding period of ischemia” value [25] of the same molecule?
The value was “protective effects”.

And the Cardiac Output [26]?
The Cardiac Output was “enhances”.

And the “portal and total hepatic blood flow” value [26]?
The value was “enhances”.

What about the “renal and hepatic microcirculation” value [26] of the same molecule?
Its value is “enhances”.

What about the “severity of adverse experiences” value ([27]; 30-hr infusions, 20 up to 75 microgram/kg/min) of the same molecule?
The value was “generally mild”.

What about the “Quality of Life domains” value ([27]; in vivo) of the same molecule?
The value was “improvements”.

What about the body weight ([27]; in vivo) of the same molecule?
The body weight was “beneficial effects”.

And the “electrocardiograms in patients with chest discomfort” value ([27]; in vivo)?
The value was “did not exhibit changes suggestive of myocardial ischemia”.

And the “time to resolution of all side effects after lowering the rate of ATP infusion” value ([27]; in vivo)?
The value was “within minutes”.

And the voluntary muscle strength ([27]; in vivo)?
The voluntary muscle strength was “beneficial effects”.

And the survival [28]?
The survival was “significant positive effects”.

And the Anaesthetic requirement [29]?
The Anaesthetic requirement was “Reduced”.

And the “Blood pressure during surgery” value [29]?
Its value is “Reduced”.

What about the “Opioid requirement after surgery” value [29] of the same molecule?
The value was “Reduced”.

And the Pain [29]?
Its Pain is “Reduced”.

What about the Anaesthetic requirement [30] of the same molecule?
The Anaesthetic requirement was “Reduced”.

What about the Pain [30] of the same molecule?
The Pain was “Reduced”.

For Nc1ncnc2c1ncn2[C@@H]1O[C@H](CO)[C@@H](O)[C@H]1O [adenosine, reference compound], which Chloride secretion (Airway mucosa [7]) is on record?
The Chloride secretion was “Increased”.

And the Ciliary beat frequency (Airway mucosa [7])?
Its Ciliary beat frequency is “Increased”.

What about the Mucus secretion (Airway mucosa [7]) of the same molecule?
The Mucus secretion was “Increased”.

And the Surfactant secretion (Airway mucosa [7])?
The Surfactant secretion was “Increased”.

And the Water secretion (Airway mucosa [7])?
Its Water secretion is “Increased”.

And the “SA + AV node conduction” value (SA + AV node)?
The value was “Inhibited”.

And the Mucociliary clearance (Airway mucosa [11])?
The Mucociliary clearance was “Increased”.

What about the Chloride secretion (Airway mucosa [11]) of the same molecule?
Its Chloride secretion is “Increased”.

What about the Chemotherapy efficacy (Tumor [18]) of the same molecule?
Its Chemotherapy efficacy is “Increased”.

What about the Radiotherapy damage (Tumor [18]) of the same molecule?
Its Radiotherapy damage is “Reduced”.

What about the Radiotherapy efficacy (Tumor [18]) of the same molecule?
The Radiotherapy efficacy was “Increased”.

And the Tumor growth (Tumor [18])?
The Tumor growth was “Inhibited”.

What about the “solubility in isotonic aqueous solutions” value [1] of the same molecule?
Its value is “high solubility”.

And the “Cancer treatment: Weight loss” value (Tumor [22])?
The value was “Inhibited”.

And the Tumor growth (Tumor [22])?
Its Tumor growth is “Inhibited”.

What about the “Cancer treatment: Weight loss” value (Tumor [24]) of the same molecule?
Its value is “Inhibited”.

What about the Chemotherapy efficacy (Tumor [24]) of the same molecule?
The Chemotherapy efficacy was “Increased”.

What about the Radiotherapy damage (Tumor [24]) of the same molecule?
The Radiotherapy damage was “Reduced”.

And the Radiotherapy efficacy (Tumor [24])?
The Radiotherapy efficacy was “Increased”.

What about the Radiotherapy survival rate (Tumor [24]) of the same molecule?
Its Radiotherapy survival rate is “Increased”.

What about the Tumor growth (Tumor [24]) of the same molecule?
Its Tumor growth is “Inhibited”.
